# Data: patent publication US7674486B2, “Synergistic composition for the treatment of diabetes mellitus” (Indus Biotech Pvt. Ltd., priority 2003, dated 2010)
# Tests used:
# [1] = test system: pancreas (potassium channel mediated insulin secretion); assay: K+ ions in pancreas homogenate by Biolyte analyser; assay type: in vivo, mouse; conditions: pancreas homogenate at 1 hour; oral: Total amino acids 10 mg/kg, Trigonelline 75 mg/kg, Glyburide 10 mg/kg, Composition 30 mg/kg
# Method: EXPERIMENT 6:—The effect of the composition prepared as per Experiment 1 & 2 as well as their individual components separated on column chromatography were studied on normal Swiss Albino mice (male) in the weight range of 25-30 gms for GTT. The animals were fed in the following manner. • 1) Administration of 2 gm/kg of glucose by Inter Peritonially. • 2) Administration of the drug (Orally):
# • 3) Measurement of BSL at 0 minutes & 1 hour. • 4) Immediately after blood removal at 1 hour, the animals were sacrificed by tail flicking and the pancreas was removed and homogenized using tris buffer. After centrifugation, the homogenate was characterized by thin layer chromatography and K^+ Ions by Biolyte analyser. Following are the observations:
# Decreased K+ ion concentration indicates the repolarisation effect as the ATP dependant IK-ATP
# [2] = test system: normal Swiss Albino mice; assay: GTT in normal Swiss Albino mice (BSL); assay type: in vivo, mouse; conditions: glucose 2 gm/kg i.p.; oral: Total amino acids 10 mg/kg, Trigonelline 75 mg/kg, Glyburide 10 mg/kg, Composition 30 mg/kg
# Description: The animals were fed in the following manner. • 1) Administration of 2 gm/kg of glucose by Inter Peritonially. • 2) Administration of the drug (Orally): [table] […] After centrifugation, the homogenate was characterized by thin layer chromatography and K^+ Ions by Biolyte analyser.
# [3] = Comparative hypoglycemic activity of fenugreek seed powder, fenugreek components and the composition; conditions: in vivo
# Description: The comparative results of fenugreek seed powder (whole), and the composition of the instant application are shown below to establish inventiveness of the application.
# The activity was restricted to only a couple of components. Also, synergy was observed by a selective combination of three components of the composition. The same is elaborated with the help of experimental data as given below.
# [4] = test system: Male wistar rats, kidney; assay: Diabetic nephropathy model (Alloxan plus left renal artery clamping); assay type: in vivo, rat
# Method: Male wistar rats of 150-200 gram were injected Alloxan (150 mg/kg i.p.) to induce diabetes. Once the animals show blood sugar above 250 mg/dl, animals are divided in groups as mentioned below and dosing of same is started as per groups. After 7 days of dosing in test drug groups and 3 days dosing in insulin group surgery is performed. In all groups animals were anesthetized and a small midline incision was made to isolate left renal artery and clamped for 30 minutes after which animals were stitched back. This is a kidney ligation technique to induce diabetic nephropathy in experimental animals. In Group 1, complete procedure was same but no treatment is given. The animals were then allowed to recover and dosing was continued as per given in various groups till day 30th after surgery. Creatinine clearance was noted on 0th, 10th, 20th and 30th day. After 30 days animals were sacrificed and kidney was sent for histopathological evaluation. Group 1 Saline (untreated) Group 2 Test drug (low dose) Group 3 Test drug (medium dose) Group 4 Test drug (high dose) Group 5 Standard (insulin)
# [5] = test system: Female wistar rats, sciatic nerve; assay: Partial sciatic nerve ligation: thermal hyperalgesia (hot plate); assay type: in vivo, rat; conditions: 50 mg/kg, nerve ligated
# Method: This experiment is conducted to evaluate the neuropathy effects. • 1. Partial Sciatic Nerve Ligation • 2.
# (§1) Surgery:—Under ether anesthesia and aseptic conditions the right sciatic nerve was exposed at high thigh level. In sham operated animals the nerve was left intact and the wound was closed with 2 muscle suture and 3-4 skin sutures.
# (§2) In experimental animals the sciatic nerve underwent partial injury. The dorsum of the nerve was carefully freed from surrounding connective tissues at a site near the trochanter just distil to the point at which the posterior biceps semitendinosus nerve branches off the common sciatic nerve. Using an irish forceps the nerve was fixed in its place by pinching the epineurium on its dorsal aspect, taking care not to press the nerve against underlying structures. An 4-0 silk suture was inserted into the nerve with ⅜ curved, reverse-cutting mini needle, and tightly ligated so that the dorsal ⅓−½ of the nerve thickness was trapped in the ligature. The wound was then closed as in sham operated rats. In all rats the left leg and sciatic nerve were untouched.
# (§3) The animals were divided into following groups:—
# (§4) Group 1 Control (vehicle treated) (but nerve not ligated)
# (§5) Group 2 Sham treated (vehicle treated)(Surgery done but no ligation of nerve)
# (§6) Group 3 Vitamin E acetate (50 mg/kg) (nerve ligated)
# (§7) Group 4 Indus test drug (100 mg/kg) (nerve ligated)
# (§8) Group 5 Indus test drug (200 mg/kg) (nerve ligated)
# • a. Thermal hyperalgesia (TH):—This was assessed using Ugo Basile Hot Plate instrument (at 55±1° C.). Antinociceptive effects were determined according to the latency (in seconds) of limb withdrawal to the noxious thermal simulation (Ugo Basile hot plate, Versace, Italy). Cut off value of planter test was set to 22 s to prevent limb injury. The pain threshold were tested on day 0, 2, 4, 6, 8, 10, 12, 14, 21 and 28. • b. Motor function test (MFT):—Motor function was monitored by observation of spontaneous gait and hind paw posture. Each animal was placed in a plastic box with plexiglass walls and allowed to habituate for at least 5 minutes before the observation period. […] The readings were observed on day 0, 2, 15 and 30.
# [6] = test system: Female wistar rats, sciatic nerve; assay: Partial sciatic nerve ligation: motor function test, pain scale; assay type: in vivo, rat; conditions: 50 mg/kg, scale 0 nil to 5 highly severe
# Method: This experiment is conducted to evaluate the neuropathy effects. • 1. Partial Sciatic Nerve Ligation • 2. Formalin Induced Behavioral And Thermal Hyperalgesia Experiment 1: Partial Sciatic Nerve Ligation Material and Method:— Preparation of Animals:— Animals:—Female wistar rats 175-250 gram (n=6)
# as §1, §2, §3, §4, §5, §6, §7, §8
# • a. Thermal hyperalgesia (TH):—This was assessed using Ugo Basile Hot Plate instrument (at 55±1° C.). Antinociceptive effects were determined according to the latency (in seconds) of limb withdrawal to the noxious thermal simulation (Ugo Basile hot plate, Versace, Italy). […] Motor function test (MFT):—Motor function was monitored by observation of spontaneous gait and hind paw posture. […] The readings were observed on day 0, 2, 15 and 30.
compound,measurement,setting,value
C[n+]1cccc(C(=O)[O-])c1 [Trigonelline],K+ Ions (μ Mol),[1],21.8 μ Mol
same,BSL after 1 hour,[2],233 mg/dL
same,BSL at 0 hrs,[2],341 mg/dL
same,Hypoglycemic activity (%),[3],31%
insulin: Standard in nephropathy model,Histopathology of the kidney: cellularity and matrix,[4]; insulin group,did not show any increase in cellularity and matrix
same,"Histopathology of the kidney: tubular necrosis, interstitial fibrosis",[4]; insulin treated group,very mild
COc1ccc(Cl)cc1C(=O)NCCc1ccc(S(=O)(=O)NC(=O)NC2CCCCC2)cc1 [Glyburide],K+ Ions (μ Mol),[1],22.5 μ Mol
same,BSL after 1 hour,[2],251 mg/dL
same,BSL at 0 hrs,[2],365 mg/dL
"CC(=O)Oc1c(C)c(C)c2c(c1C)CCC(C)(CCC[C@H](C)CCC[C@H](C)CCCC(C)C)O2 (some centres unmarked) [Vitamin E, Vitamin E acetate]","Thermal hyperalgesia, latency of limb withdrawal",[5]; 0th day (before ligation),9.51 s
same,"Thermal hyperalgesia, latency of limb withdrawal",[5]; 2nd day,3.24 s
same,"Thermal hyperalgesia, latency of limb withdrawal",[5]; 4th day,5.9 s
same,"Thermal hyperalgesia, latency of limb withdrawal",[5]; 6th day,7.12 s
same,"Thermal hyperalgesia, latency of limb withdrawal",[5]; 8th day,7.95 s
same,"Thermal hyperalgesia, latency of limb withdrawal",[5]; 10th day,9.81 s
same,"Thermal hyperalgesia, latency of limb withdrawal",[5]; 12th day,9.88 s
same,"Thermal hyperalgesia, latency of limb withdrawal",[5]; 14th day,10.04 s
same,"Motor function test, Pain scale",[6]; 0th day,0
same,"Motor function test, Pain scale",[6]; 2nd day,2.77
same,"Motor function test, Pain scale",[6]; 15th day,1.25
